# System: HBV
# Assay: HBV replication in HBV-infected fresh primary human hepatocytes (PHH): secreted HBsAg, HBeAg, HBV DNA
# Assay type: cell-based, HBV (genotype D)
# Details: FXR agonist 1 μM combined with Riboxxol 5 μg/mL, FIG. 5
# Description: Primary human hepatocytes (PHH) were freshly prepared from human liver resection obtained from the Centre Léon Bérard (Lyon) with French ministerial authorizations (AC 2013-1871, DC 2013-1870, AFNOR NF 96 900 sept 2011) as previously described (Lecluyse, E. L. & Alexandre, E. Methods Mol. Biol. Clifton NJ 640, 57-82 (2010)).
# HBV stocks (genotype D, Genbank ID U95551) were prepared using the HepAD38 cell line according to previously described protocols (Ladner, S. K. et al. Antimicrob. Agents Chemother. 41, 1715-1720 (1997)). Supernatants containing HBV particles were clarified (0.45 μm filter) and concentrated with 8% PEG 8000 (Sigma-Aldrich). HBV DNA was quantified using the AmpliPrep/COBAS® TaqMan® HBV Test (Roche).
# EYP-001 was provided by Enyo Pharma. A stock at 30 mM was constituted in DMSO, and working concentrations were obtained by dilution into the culture medium extemporaneously. Riboxxol was purchased from Riboxx (Germany). It is a synthetic double-stranded RNA (dsRNA), has a length of 50 bp, and is composed of cytosines, inosines and guanosines. It is a pure agonist of TLR3, with no leakiness toward RIG-1 or MDA5 (Lucifora J et al. Sci Rep. 2018 Mar. 29; 8(1):5390). A stock solution was constituted at 1 mg/mL in RNAse-free water. Poly(I:C) High and Low molecular weight were purchased from InvivoGen (USA). They are both double stranded RNA composed of inosine and cytosine (Low: 0.2 to 1 kb, High: 1.5 to 8 kb) and are TLR3 agonists. A stock solution at 1 mg/mL was constituted in RNAse-free water. Tropifexor, Cilofexor and Nidufexor were purchased from TargetMol (USA), GW4064 from Selleckchem (USA), Fexaramine and OCA from Euromedex (France). Those 6 FXR agonists were used as described below. All the stock solutions were at 10 mM (Cilofexor, Tropifexor, Nidufexor, GW4064) or 50 mM (Fexaramine, OCA) in DMSO.
# HBs and HBe antigens secreted in cells supernatant were quantified, after required dilutions, with Autobio kits (AutoBio, China) according to manufacturer's protocol.
# To determine the combined impact of FXR agonists and TLR3 agonists on HBV infection, in vitro infections were performed in primary human hepatocytes (PHH). PHH are naturally susceptible to infection with HBV virions produced in vitro, leading to very high levels of replication of the virus. Freshly prepared and seeded PHH were infected with HBV at a multiplicity of infection of 500 vge/cell. From day 4 to 12 post-infection, cells were treated with the FXR agonist EYP001 at 30 μM, or with a TLR3 agonist (Riboxxol) at 5 μg/mL, or with the combination of the FXR agonist EYP001 at 30 μM with a TLR3 agonist (Riboxxol) at 5 μg/mL, or with the vehicle. Supernatants were harvested at day 12 for secreted HBV DNA and secreted antigens (HBsAg and HBeAg) quantification. Results are expressed as the mean+SD of two independent experiments, each performed with at least three biological replicates. […]
# A third experiment was conducted the same way, in the same model of HBV infected PHH. In this experiment, 6 different FXR agonists (Tropifexor at 1 μM, Cilofexor at 10 μM, Nidufexor at 10 μM, GW4064 at 10 μM, Fexaramine at 10 μM and OCA at 10 μM) were combined with the TLR3 agonist Riboxxol at 5 μg/mL.
Compound,"HBeAg level, effect of the combination versus the TLR3 agonist alone","HBsAg level, effect of the combination versus the TLR3 agonist alone"
"O=C(O)c1cc(F)c2nc(N3[C@@H]4CC[C@H]3C[C@@H](OCc3c(-c5ccccc5OC(F)(F)F)noc3C3CC3)C4)sc2c1 [Tropifexor, 2-(3-((5-cyclopropyl-3-(2-(trifluoromethoxy)phenyl)isoxazol-4-yl)methoxy)-8-azabicyclo[3.2.1]octan-8-yl)-4-fluorobenzo[d]thiazole-6-carboxylic acid]",improve the antiviral effects,improve the antiviral effects

# Same assay, conditions: FXR agonist 10 μM combined with Riboxxol 5 μg/mL, FIG. 5
Compound,"HBeAg level, effect of the combination versus the TLR3 agonist alone","HBsAg level, effect of the combination versus the TLR3 agonist alone"
"O=C(O)c1ccnc(N2CC(O)(c3ccc(OCc4c(-c5c(Cl)cccc5Cl)noc4C4CC4)cc3Cl)C2)c1 [Cilofexor, 2-[3-[2-Chloro-4-[[5-cyclopropyl-3-(2,6-dichlorophenyl)-4-isoxazolyl]methoxy]phenyl]-3-hydroxy-1-azetidinyl]-4-pyridinecarboxylic acid]",improve the antiviral effects,improve the antiviral effects
COC(=O)/C=C/c1cccc(N(Cc2ccc(-c3ccc(N(C)C)cc3)cc2)C(=O)C2CCCCC2)c1 [Fexaramine],improve the antiviral effects,improve the antiviral effects
"CC(C)c1onc(-c2c(Cl)cccc2Cl)c1COc1ccc(/C=C/c2cccc(C(=O)O)c2)c(Cl)c1 [GW4064, 3-[2-[2-Chloro-4-[[3-(2,6-dichlorophenyl)-5-(1-methylethyl)-4-isoxazolyl]methoxy]phenyl]ethenyl]benzoic acid]",improve the antiviral effects,improve the antiviral effects
"Cn1nc(C(=O)N(Cc2ccccc2)Cc2ccc(C(=O)O)cc2)c2c1-c1cc(Cl)ccc1OC2 [Nidufexor, 4-[(N-benzyl-8-chloro-1-methyl-1,4-dihydro[1]benzopyrano[4,3-c]pyrazole-3-carboxamido)methyl]benzoic acid]",improve the antiviral effects,improve the antiviral effects
"CC[C@H]1[C@@H](O)[C@@H]2[C@H](CC[C@]3(C)[C@@H]([C@H](C)CCC(=O)O)CC[C@@H]23)[C@@]2(C)CC[C@@H](O)C[C@@H]12 [OCA, Cholan-24-oic acid, 6-ethyl-3,7-dihydroxy-, (3α,5β,6α,7α)-]",improve the antiviral effects,improve the antiviral effects
